The target of the experiment is T1, LHRH (Rattus norvegicus, UniProt P30969).
T1 construct: endogenous in cells
T1 sequence (P30969 1-327): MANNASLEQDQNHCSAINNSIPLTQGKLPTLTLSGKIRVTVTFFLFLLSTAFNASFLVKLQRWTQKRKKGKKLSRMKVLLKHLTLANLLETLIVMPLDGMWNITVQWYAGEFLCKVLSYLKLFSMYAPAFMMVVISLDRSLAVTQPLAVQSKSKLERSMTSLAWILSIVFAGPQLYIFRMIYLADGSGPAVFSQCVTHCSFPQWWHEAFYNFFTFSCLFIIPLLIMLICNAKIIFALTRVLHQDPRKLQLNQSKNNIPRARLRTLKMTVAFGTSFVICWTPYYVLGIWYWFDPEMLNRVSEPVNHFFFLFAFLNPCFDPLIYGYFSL
Description: in vitro test for LHRH antagonist potency (pA2) against the agonist leuprolide. It counts as cell-based. The settings on record: negative logarithm of the concentration of antagonist which shifts the response curve produced by the agonist leuprolide to two-fold higher concentration. Here is the method: Representative compounds of the present invention were evaluated in in vitro tests for receptor binding (pKI) and for LHRH antagonist potency (pA2). The tests employed the methods detailed in F. Haviv, et al. J. Med. Chem, 32: 2340-2344 (1989). The receptor binding affinities (pKI) are the negative logarithms of the equilibrium dissociation constants, and the values of pA2 are the negative logarithms of the concentration of antagonist which shift the response curve produced by the agonist leuprolide to two-fold higher concentration. (Leuprolide is the LHRH agonist having the structure 5-ox--Pro^1 --His^2 --Trp^3 --Ser^4 -- Tyr^5 --D--Leu^6 --Leu^7 --Arg^8 --Pro^9 --NHEt and is disclosed and claimed in U.S. Pat. No. 4,005,063.) Typically pA2 values of 9.5 or greater are indicative of good LHRH antagonist potency.

Where a SMILES comes first, the peptide text is derived from it. [ ]: non-standard residue; d: D form. NMePhe(4-NO2) = CN[C@@H](Cc1ccc([N+](=O)[O-])cc1)C(=O)O; dPhe(4-Cl) = N[C@H](Cc1ccc(Cl)cc1)C(=O)O; d2Nal = N[C@H](Cc1ccc2ccccc2c1)C(=O)O; dCit = NC(=O)NCCC[C@@H](N)C(=O)O; d3Pal = N[C@H](Cc1cccnc1)C(=O)O

In the case of “NAc--D-2Nal--D-4ClPhe--D-3Pal--Ser--NMeTyr--D-(4-Atza)Phe--Leu--Lys(Isp)--Pro--D--AlaNH2 [Example 4]”, the pA2 worked out at 10.35.

As for “NAc--D2Nal--D4ClPhe--D3Pal--Ser--NMe(4-Atza)Phe--DLyS(Nic)--Leu--Lys(Isp)-- ProDAlaNH2 [Example 3]”, the pA2 is listed as 11.22.

On to `CC(=O)N[C@H](Cc1ccc2ccccc2c1)C(=O)N[C@H](Cc1ccc(Cl)cc1)C(=O)N[C@H](Cc1cccnc1)C(=O)N[C@@H](CO)C(=O)N(C)[C@@H](Cc1ccc([N+](=O)[O-])cc1)C(=O)N[C@H](CCCNC(N)=O)C(=O)N[C@@H](CC(C)C)C(=O)N[C@@H](CCCNC(=N)N)C(=O)N1CCC[C@H]1C(=O)N[C@H](C)C(N)=O` [Example 1, NAc--D-2Nal--D-4ClPhe--D-3Pal--Ser--NMe(4-NO2)Phe--D--Cit--Leu--Arg--Pro--DAlaNH2] (Ac-[d2Nal][dPhe(4-Cl)][d3Pal]S[NMePhe(4-NO2)][dCit]LRP[dA]-NH2), for which the Kb is 5.5 pM.

For the compound “NAc--D-2Nal--D-4ClPhe--D-3Pal--Ser--NMe--(4-Atza)Phe--D--(4-Atza)Phe--Leu --Lys(Isp)--Pro--D--AlaNH2 [Example 5]”, the pA2 is reported as 10.68.

As usually defined, the pA2 is a measure of antagonist potency on a negative log scale. For orientation: Kb means the affinity of an antagonist, worked out from how it opposes an agonist.

For the origin of these results see patent US5491217A, “LHRH antagonists having modified aminoacyl residues at positions 5 and 6” (TAP Holding Inc., priority 1994, dated 1996).
